Experimental data from patent US9682054B2, “Medium-chain length fatty acids, glycerides and analogues as stimulators of erythropoiesis” (PROMETIC PHARMA SMT LIMITED, priority 2003, dated 2017).
Entries after “also recorded” stand apart in the source; their conditions may differ. Read-outs that look alike come from different tables or passages of the source.

Assays:
[1] = tested on: bone marrow from the femur; details: for Gross pathological observations: Bone Marrow Color: femur at day +5; for appearance of the femur (bone marrow): immunosuppression induced by 5-fluorouracil (5-FU) 80 mg/kg i.v., compared with the cyclophosphamide results (red femur)
Method: Female C57BL/6 mice, 6 to 8 week old, were immunosuppressed by treatment with 200 mg/kg of cyclophosphamide (CY) or 80 mg/kg 5-fluorouracil (5-FU) administered intravenously at day 0. To examine the immunoprotective effect of MCT or other compounds, mice were pre-treated orally at day −3, −2 and −1 at day 0 with the compound. Mice were sacrificed at day +5 by cardiac puncture and cervical dislocation. Then, a gross pathological observation of the femurs (as a source of bone marrow cells) was recorded.

[2] = tested on: human bone marrow cells; assay: In vitro human bone marrow cell proliferation ([3H]-thymidine incorporation); type: cell-based
Method: Bone marrow cells were obtained from the sternum of cancer patients. Cells were washed with PBS and resuspended at a concentration of 2×10^6 cells per ml. Cells were cultured in RPMI/FBS media in the presence or the absence of tricaprin or tricaprylin for 48 and 72 hours at 37° C. After incubation, cells were pulsed with 1 μCi of [^3H]-thymidine for 6 hours. Plates were harvested on a Tomteck and counted on a Microbeta β-counter. Incorporation of [^3H]-thymidine in the DNA is a direct indication of the cell proliferation.

[3] = tested on: human hematopoietic progenitors; assay: In vitro human bone marrow colony forming unit (CFU) formation assay; type: cell-based; details: for BFU-E / CFU-GEMM / CFU-GM / TOTAL CFC (Colony Forming Cells): tricaprin 10%; for increase in BFU-E colonies formation / increase in the number of CFU-GEMM: versus control
Method: Bone marrow cells were obtained from the sternum of various cancer patients. Cells were washed with PBS and resuspended at a concentration of 2×10^6 cells per ml. Cells were cultured in RPMI/FBS or Myelocult (Stem cell technology, Vancouver)/FBS media in the presence or the absence of tricaprin for 5 days at 37° C. After incubation, cells were harvested, washed and counted. Based on the viable cells count, the cells were resuspended at a concentration of 5×10^5 cells per ml in IMDM media supplemented with 2% FBS. From these cells, four replicates of 2.5×10^4 cells per dish were plated in Methocult medium so that a colony forming unit (CFU) formation assay could be undertaken. CFU-GM, CFU-GEMM and BFU-E were recorded after 14 to 16 days culture.

[4] = tested on: spleen red cell; assay: Chemoprotection study: spleen red cell count in cyclophosphamide treated mice; type: in vivo, C57BL/6 mice
From the text: Effect of tricaprin, capric acid and sodium caprate on in vivo induction of immune cell proliferation or protection was undertaken following the protocol described in example 1. After the sacrifice, tissues were crushed in PBS buffer and cells were counted on a hemacytometer. Effect of oral and intravenous administration of sodium caprate on in vivo induction of immune cell proliferation or protection was undertaken following the protocol described in example 1. After sacrifice, tissues were crushed in PBS buffer and cells were counted on a hemacytometer.

[5] = tested on: bone marrow red cell; assay: Chemoprotection study: bone marrow red cell count in cyclophosphamide treated mice, comparison with GM-CSF; type: in vivo, C57BL/6 mice
From the text: (§1) Effect of oral and intravenous administration of sodium caprate and GM-CSF on in vivo induction of immune cell proliferation or protection was undertaken following the protocol described in example 1. After sacrifice, tissues were crushed in PBS buffer and cells were counted on a hemacytometer.

[6] = tested on: peripheral blood cell; assay: Chemoprotection study: number of peripheral blood cell; type: in vivo, C57BL/6 mice; details: sodium caprate used alone
From the text: as §1

[7] = tested on: bone marrow cells; assay: Anemia model: ex vivo bone marrow colony forming unit (CFU) formation assay; type: in vivo, BALB/c mice; details: i.v. pre-treatment
Method: To examine the immunoprotective or immunorestorative effect of sodium caprate in an anemia model, BALB/c mice were pre-treated intravenously at day −3, −2 and −1 with compound. Anemia was induced by treatment with 60 mg/kg phenylhydrazine administered intraperitonealy at day 0 to female BALB/c mice, 6 to 8 week old. Mice were sacrificed at day +6 by cardiac puncture and cervical dislocation. Then, bone marrow cells were obtained from femur. Cells were flushed and washed with PBS. Based on the viable cells count, the cells were resuspended at a concentration of 5×10^5 cells per ml in IMDM media supplemented with 2% FBS. From these cells, two replicates of 3×10^4 cells per dish were plated in Methocult medium so that a colony forming unit (CFU) formation assay could be undertaken. CFU-E and BFU-E were recorded after 2 to 3 days culture. CFU-GM and CFU-GEMM were recorded after 14 to 16 days culture.

[8] = cyclophosphamide (CY) 200 mg/kg i.v. day 0 plus compound given orally as pre-treatment
[9] = Myelocult/FBS medium, Experiment 1
[10] = Myelocult/FBS medium, Experiment 2
[11] = single agent (GM-CSF at high concentration, 1 μg/kg)
[12] = normal mice, bone marrow cells in Methocult
[13] = phenylhydrazine-induced anemia mice (60 mg/kg i.p.)

CCCCCCCCCC(=O)OCC(COC(=O)CCCCCCCCC)OC(=O)CCCCCCCCC [tricaprin]
Gross pathological observations: Bone Marrow Color [1, 8]: Red | appearance of the femur (bone marrow) [1]: same results | bone marrow proliferation in combination with erythropoietin (EPO) ([2]; 48 hours): additive | bone marrow proliferation in combination with erythropoietin (EPO) ([2]; 72 hours): synergistic | BFU-E [3, 9]: 380 | CFU-GEMM [3, 9]: 4.75 | CFU-GM [3, 9]: 17 | TOTAL CFC (Colony Forming Cells) [3, 9]: 401 | BFU-E [3, 10]: 268 | CFU-GEMM [3, 10]: 4.25 | CFU-GM [3, 10]: 34 | TOTAL CFC (Colony Forming Cells) [3, 10]: 306 | increase in BFU-E colonies formation ([3]; Myelocult/FBS medium): up to 6 times | increase in the number of CFU-GEMM ([3]; Myelocult/FBS medium): up to 2 times | BFU-E ([3]; RPMI/FBS medium, Experiment 1): 130 | CFU-GEMM ([3]; RPMI/FBS medium, Experiment 1): 4.75 | CFU-GM ([3]; RPMI/FBS medium, Experiment 1): 26 | TOTAL CFC (Colony Forming Cells) ([3]; RPMI/FBS medium, Experiment 1): 161 | BFU-E ([3]; RPMI/FBS medium, Experiment 2): 121 | CFU-GEMM ([3]; RPMI/FBS medium, Experiment 2): 4 | CFU-GM ([3]; RPMI/FBS medium, Experiment 2): 25 | TOTAL CFC (Colony Forming Cells) ([3]; RPMI/FBS medium, Experiment 2): 150 | increase in BFU-E colonies formation ([3]; RPMI/FBS medium): up to 13 times | increase in the number of CFU-GEMM ([3]; RPMI/FBS medium): up to 3 times | spleen red cell count ([4]; oral pre-treatment): significant increase

GM-CSF: GM-CSF, comparator growth factor used at 1 μg/kg
bone marrow red cell count [5, 11]: significant increase

CCCCCCCCCC(=O)O [capric acid]
Gross pathological observations: Bone Marrow Color [1, 8]: Red | appearance of the femur (bone marrow) [1]: same results | spleen red cell count ([4]; oral pre-treatment): significant increase

CCCCCCCC(=O)OCC(COC(=O)CCCCCCC)OC(=O)CCCCCCC [tricaprylin]
Gross pathological observations: Bone Marrow Color [1, 8]: Red | appearance of the femur (bone marrow) [1]: same results | bone marrow proliferation in combination with erythropoietin (EPO) ([2]; time not stated): synergistic increase | increase in bone marrow proliferation relative to the control ([2]; human bone marrow cells, RPMI/FBS, 48 and 72 hours, [3H]-thymidine): 2 fold

CCCCCCCCCC(=O)[O-].[Na+] [sodium caprate]
Gross pathological observations: Bone Marrow Color [1, 8]: Red | appearance of the femur (bone marrow) [1]: same results | number of peripheral blood cell [6]: significant increase | bone marrow red cell count ([5]; in combination with GM-CSF): additive increase | bone marrow red cell count [5, 11]: significant increase | number of CFU-E [7, 12]: enhances | number of CFU-GEMM [7, 12]: enhances | CFU-E [7, 13]: strong increase | CFU-GEMM [7, 13]: strong increase | CFU-GM [7, 13]: strong increase | spleen red cell count ([4]; intravenous pre-treatment): significant increase; also recorded: increases the spleen red cell counts to the baseline level of control mice | spleen red cell count ([4]; oral pre-treatment): significant increase

O=P1(N(CCCl)CCCl)NCCCO1 (stereo not shown) [CY, cyclophosphamide, reference compound]
Gross pathological observations: Bone Marrow Color ([1]; cyclophosphamide (CY) 200 mg/kg i.v. day 0 alone): White, almost translucent
